# Results published in patent publication US20090137661A1, “PLANT DERIVED COMPOUNDS AND COMPOUND FORMULAE CONTAINING THE SAME FOR THE TREATMENT OF CERVICAL CANCER” (priority 2007, published 2009).
# Counter-ions that a name gives are not always drawn. Like-named read-outs stand apart in the source and are kept apart here.
# Assays:
# HeLa cells = assay: Cytotoxicity assay (MTT assay) on HeLa cells; conditions: for IC50: Homo sapiens, HeLa
# Protocol: HeLa cell line was obtained from Dr. S. S. Shen (Biomedical Engineering Research Laboratories of Industrial Technology Research Institute of Taiwan). HeLa cells are adherent cells and were propagated and maintained in Dulbecco's modified Eagle's medium (DMEM) supplemented with 10% fetal bovine serum (FBS), […] sodium bicarbonate (NaHCO3), 1 mM sodium pyruvate, and 0.1 mM non-essential amino acid.
# (§1) Cytotoxicity Assay (MTT Assay)
# The cytotoxicity of the compounds set forth herein to HeLa cells and HUVEC cells were determined by the MTT assay. The HUVEC cells were used to understand the cytotoxicity of said compounds to normal human cells. Besides, doxorubicin HCl was used as a comparative example so as to investigate the efficacy of the compounds according to the embodiments of the present invention.
# Briefly, the MTT assay comprises the following steps: • (A) Cells were seeded in 96-well plates 3 hours before treatment, wherein the density of HeLa cell is 1×10^4 cells per well and the density of HUVEC cell is 2×10^4 cells per well; • (B) Cells were then treated with various concentrations of tested samples and incubated for a predetermined period (24, 48, and 72 hours); • (C) After the predetermined periods expired, the tested samples were removed and 100 μl MTT reagent (1 mg/ml) was added to each well; • (D) The plates were incubated at 37° C. with 5% of CO2 for 5 hours; • (E) The MTT reagent was removed and 100 μl DMSO was added to each well; • (F) The optical density (O.D.) of each well was determined by ELISA reader at a wavelength of 560 nm.
# Each experiment was repeated for 3 times and the result shown in the tables herein were the mean value of the 3 repetitions. The O.D. of the vehicle control and experimental groups were recorded. The cell survival rate of each sample was calculated as follows:
# Cell survival rate(%)=O.D.control/O.D.experimental*100%
# Then, the cell survival rate was plotted against the compound concentration and the IC50 value of each compound was calculated by the GraFit data analysis software (Erithacus Software Ltd.).
# HUVEC cells = assay: Cytotoxicity assay (MTT assay) on HUVEC cells; assay type: cell-based, human; conditions: for IC50: Homo sapiens; for IC50 / IC50 at 24 hours, HUVEC / IC50 at 48 hours, HUVEC / IC50 at 72 hours, HUVEC: HUVEC cells
# Source text: Human umbilical vein endothelial cells (HUVEC) were purchased from Food Industry Research and Development Institute in Hsin-Chu City, Taiwan. HUVEC cells were propagated and maintained in Medium 199 supplemented with 10% FBS, Heparin, and […].
# as §1
# [1] = 24 h, read-out: IC50 at 24 hours, HeLa
# [2] = 48 h, read-out: IC50 at 48 hours, HeLa
# [3] = 72 h, read-out: IC50 at 72 hours, HeLa
# [4] = 24 hours, read-out: IC50 at 24 hours, HUVEC
# [5] = 48 hours, read-out: IC50 at 48 hours, HUVEC
# [6] = 72 hours, read-out: IC50 at 72 hours, HUVEC
compound,measurement,setting,value
"COc1cccc2c1C(=O)c1c(O)c3c(c(O)c1C2=O)C[C@@](O)(C(=O)CO)C[C@@H]3O[C@H]1C[C@H](N)[C@H](O)[C@H](C)O1 [Doxorubin HCl, Doxorubicin HCl, reference compound]",HeLa Cell Survival Rate,"HeLa cells; 0.00058 μg/ml, 24 hrs",96%
same,HeLa Cell Survival Rate,"HeLa cells; 0.00058 μg/ml, 48 hrs",100%
same,HeLa Cell Survival Rate,"HeLa cells; 0.00058 μg/ml, 72 hrs",97%
same,HeLa Cell Survival Rate,"HeLa cells; 0.0058 μg/ml, 24 hrs",95%
same,HeLa Cell Survival Rate,"HeLa cells; 0.0058 μg/ml, 48 hrs",92%
same,HeLa Cell Survival Rate,"HeLa cells; 0.0058 μg/ml, 72 hrs",89%
same,HeLa Cell Survival Rate,"HeLa cells; 0.058 μg/ml, 24 hrs",84%
same,HeLa Cell Survival Rate,"HeLa cells; 0.058 μg/ml, 48 hrs",81%
same,HeLa Cell Survival Rate,"HeLa cells; 0.058 μg/ml, 72 hrs",72%
same,HeLa Cell Survival Rate,"HeLa cells; 0.58 μg/ml, 24 hrs",46%
same,HeLa Cell Survival Rate,"HeLa cells; 0.58 μg/ml, 48 hrs",23%
same,HeLa Cell Survival Rate,"HeLa cells; 0.58 μg/ml, 72 hrs",11%
same,HUVEC/HeLa ratio of IC50,HeLa cells; 24 hours,>1.2
same,HUVEC/HeLa ratio of IC50,HeLa cells; 48 hours,1.5
same,HUVEC/HeLa ratio of IC50,HeLa cells; 72 hours,1.8
same,IC50,HeLa cells; [1],0.48 µg/mL
same,IC50,HeLa cells; [2],0.2 µg/mL
same,IC50,HeLa cells; [3],0.12 µg/mL
same,HUVEC Cell Survival Rate,"HUVEC cells; 0.145 μg/ml, 24 hrs",111%
same,HUVEC Cell Survival Rate,"HUVEC cells; 0.145 μg/ml, 48 hrs",77%
same,HUVEC Cell Survival Rate,"HUVEC cells; 0.145 μg/ml, 72 hrs",68%
same,HUVEC Cell Survival Rate,"HUVEC cells; 0.290 μg/ml, 24 hrs",100%
same,HUVEC Cell Survival Rate,"HUVEC cells; 0.290 μg/ml, 48 hrs",56%
same,HUVEC Cell Survival Rate,"HUVEC cells; 0.290 μg/ml, 72 hrs",38%
same,HUVEC Cell Survival Rate,"HUVEC cells; 0.580 μg/ml, 24 hrs",90%
same,HUVEC Cell Survival Rate,"HUVEC cells; 0.580 μg/ml, 48 hrs",19%
same,HUVEC Cell Survival Rate,"HUVEC cells; 0.580 μg/ml, 72 hrs",14%
same,IC50,HUVEC cells; [4],> 0.58 µg/mL
same,IC50,HUVEC cells; [5],0.299 µg/mL
same,IC50,HUVEC cells; [6],0.22 µg/mL
isopsoralen [Compound A],HeLa Cell Survival Rate,"HeLa cells; 0.125 μg/ml, 24 hrs",91%
same,HeLa Cell Survival Rate,"HeLa cells; 0.125 μg/ml, 48 hrs",99%
same,HeLa Cell Survival Rate,"HeLa cells; 0.125 μg/ml, 72 hrs",98%
same,HeLa Cell Survival Rate,"HeLa cells; 1.25 μg/ml, 24 hrs",88%
same,HeLa Cell Survival Rate,"HeLa cells; 1.25 μg/ml, 48 hrs",75%
same,HeLa Cell Survival Rate,"HeLa cells; 1.25 μg/ml, 72 hrs",69%
same,HeLa Cell Survival Rate,"HeLa cells; 12.5 μg/ml, 24 hrs",70%
same,HeLa Cell Survival Rate,"HeLa cells; 12.5 μg/ml, 48 hrs",30%
same,HeLa Cell Survival Rate,"HeLa cells; 12.5 μg/ml, 72 hrs",10%
same,HeLa Cell Survival Rate,"HeLa cells; 125 μg/ml, 24 hrs",18%
same,HeLa Cell Survival Rate,"HeLa cells; 125 μg/ml, 48 hrs",11%
same,HeLa Cell Survival Rate,"HeLa cells; 125 μg/ml, 72 hrs",7%
same,HUVEC/HeLa ratio of IC50,HeLa cells; 24 hours,>4.6
same,HUVEC/HeLa ratio of IC50,HeLa cells; 48 hours,11.4
same,HUVEC/HeLa ratio of IC50,HeLa cells; 72 hours,19
same,"IC50 at 24 hours, HeLa","HeLa cells; HeLa cells, 24 hours",27 µg/mL
same,"IC50 at 48 hours, HeLa","HeLa cells; HeLa cells, 48 hours",5 µg/mL
same,"IC50 at 72 hours, HeLa","HeLa cells; HeLa cells, 72 hours",2 µg/mL
same,cytotoxicity to HeLa cells compared with Doxorubicin HCl,HeLa cells; under the corresponding conditions,higher cytotoxicity
same,HUVEC Cell Survival Rate,"HUVEC cells; 0.125 μg/ml, 24 hrs",103%
same,HUVEC Cell Survival Rate,"HUVEC cells; 0.125 μg/ml, 48 hrs",104%
same,HUVEC Cell Survival Rate,"HUVEC cells; 0.125 μg/ml, 72 hrs",92%
same,HUVEC Cell Survival Rate,"HUVEC cells; 1.25 μg/ml, 24 hrs",103%
same,HUVEC Cell Survival Rate,"HUVEC cells; 1.25 μg/ml, 48 hrs",96%
same,HUVEC Cell Survival Rate,"HUVEC cells; 1.25 μg/ml, 72 hrs",87%
same,HUVEC Cell Survival Rate,"HUVEC cells; 12.5 μg/ml, 24 hrs",100%
same,HUVEC Cell Survival Rate,"HUVEC cells; 12.5 μg/ml, 48 hrs",83%
same,HUVEC Cell Survival Rate,"HUVEC cells; 12.5 μg/ml, 72 hrs",80%
same,HUVEC Cell Survival Rate,"HUVEC cells; 125 μg/ml, 24 hrs",67%
same,HUVEC Cell Survival Rate,"HUVEC cells; 125 μg/ml, 48 hrs",31%
same,HUVEC Cell Survival Rate,"HUVEC cells; 125 μg/ml, 72 hrs",19%
same,"IC50 at 24 hours, HUVEC",HUVEC cells; 24 hours,>125 µg/mL
same,"IC50 at 48 hours, HUVEC",HUVEC cells; 48 hours,57 µg/mL
same,"IC50 at 72 hours, HUVEC",HUVEC cells; 72 hours,38 µg/mL
"COc1ccc2cc3[n+](cc2c1OC)CCc1cc2c(cc1-3)OCO2.[Cl-] [Compound H, berberine hydrochloride]",cytotoxicity to HeLa cells compared with Doxorubicin HCl,HeLa cells,higher cytotoxicity
same,HeLa Cell Survival Rate,"HeLa cells; 0.1 μg/ml, 24 hrs",89%
same,HeLa Cell Survival Rate,"HeLa cells; 0.1 μg/ml, 48 hrs",98%
same,HeLa Cell Survival Rate,"HeLa cells; 0.1 μg/ml, 72 hrs",98%
same,HeLa Cell Survival Rate,"HeLa cells; 1 μg/ml, 24 hrs",87%
same,HeLa Cell Survival Rate,"HeLa cells; 1 μg/ml, 48 hrs",84%
same,HeLa Cell Survival Rate,"HeLa cells; 1 μg/ml, 72 hrs",91%
same,HeLa Cell Survival Rate,"HeLa cells; 10 μg/ml, 24 hrs",82%
same,HeLa Cell Survival Rate,"HeLa cells; 10 μg/ml, 48 hrs",71%
same,HeLa Cell Survival Rate,"HeLa cells; 10 μg/ml, 72 hrs",62%
same,HeLa Cell Survival Rate,"HeLa cells; 100 μg/ml, 24 hrs",28%
same,HeLa Cell Survival Rate,"HeLa cells; 100 μg/ml, 48 hrs",17%
same,HeLa Cell Survival Rate,"HeLa cells; 100 μg/ml, 72 hrs",10%
same,HUVEC/HeLa ratio of IC50,HeLa cells; 24 hours,0.8
same,HUVEC/HeLa ratio of IC50,HeLa cells; 48 hours,0.7
same,HUVEC/HeLa ratio of IC50,HeLa cells; 72 hours,0.6
same,"IC50 at 24 hours, HeLa","HeLa cells; HeLa cells, 24 hours",39 µg/mL
same,"IC50 at 72 hours, HeLa","HeLa cells; HeLa cells, 72 hours",15 µg/mL
same,IC50 for inhibiting HeLa cells as restated in text,"HeLa cells; values taken from tables 4 and 5 (48 hours), unit inferred",21 µg/mL
same,HUVEC Cell Survival Rate,"HUVEC cells; 1 μg/ml, 24 hrs",89%
same,HUVEC Cell Survival Rate,"HUVEC cells; 1 μg/ml, 48 hrs",81%
same,HUVEC Cell Survival Rate,"HUVEC cells; 1 μg/ml, 72 hrs",77%
same,HUVEC Cell Survival Rate,"HUVEC cells; 10 μg/ml, 24 hrs",76%
same,HUVEC Cell Survival Rate,"HUVEC cells; 10 μg/ml, 48 hrs",64%
same,HUVEC Cell Survival Rate,"HUVEC cells; 10 μg/ml, 72 hrs",51%
same,HUVEC Cell Survival Rate,"HUVEC cells; 100 μg/ml, 24 hrs",23%
same,HUVEC Cell Survival Rate,"HUVEC cells; 100 μg/ml, 48 hrs",16%
same,HUVEC Cell Survival Rate,"HUVEC cells; 100 μg/ml, 72 hrs",15%
same,"IC50 at 24 hours, HUVEC",HUVEC cells; 24 hours,30 µg/mL
same,"IC50 at 48 hours, HUVEC",HUVEC cells; 48 hours,15 µg/mL
same,"IC50 at 72 hours, HUVEC",HUVEC cells; 72 hours,9 µg/mL
"O=c1c(O)c(-c2ccc(O)c(O)c2)oc2cc(O)cc(O)c12 [Compound E, quercetin]",HeLa Cell Survival Rate,"HeLa cells; 0.1 μg/ml, 24 hrs",93%
same,HeLa Cell Survival Rate,"HeLa cells; 1 μg/ml, 72 hrs",91%
same,HeLa Cell Survival Rate,"HeLa cells; 10 μg/ml, 24 hrs",83%
same,HeLa Cell Survival Rate,"HeLa cells; 10 μg/ml, 48 hrs",51%
same,HeLa Cell Survival Rate,"HeLa cells; 10 μg/ml, 72 hrs",33%
same,HeLa Cell Survival Rate,"HeLa cells; 100 μg/ml, 48 hrs",32%
same,HeLa Cell Survival Rate,"HeLa cells; 100 μg/ml, 72 hrs",12%
same,IC50,HeLa cells; [1],> 100 µg/mL
same,IC50,HeLa cells; [2],20 µg/mL
same,IC50,HeLa cells; [3],6 µg/mL
same,HUVEC Cell Survival Rate,"HUVEC cells; 10 μg/ml, 48 hrs",87%
same,HUVEC Cell Survival Rate,"HUVEC cells; 10 μg/ml, 72 hrs",80%
same,HUVEC Cell Survival Rate,"HUVEC cells; 100 μg/ml, 24 hrs",120%
same,HUVEC Cell Survival Rate,"HUVEC cells; 100 μg/ml, 48 hrs",51%
same,HUVEC Cell Survival Rate,"HUVEC cells; 100 μg/ml, 72 hrs",26%
same,IC50,HUVEC cells; [4],> 100 µg/mL
same,IC50,HUVEC cells; [5],104 µg/mL
same,IC50,HUVEC cells; [6],36 µg/mL
